From the CheMixHub viscosity set
Several values for one entry are separate records, joined by “and”; a condition that tells them apart may be missing. Identical values can stand only once.

Test: xn = mol fraction of the nth substance listed

CCC(C)CC + COC(C)(C)C
298.15 K, 101.33 kPa
Settings	viscosity [mPa·s]
x2 = 0.0876	0.2925
x2 = 0.1993	0.2945
x2 = 0.2983	0.2972
x2 = 0.3943	0.3008
x2 = 0.5016	0.3049
x2 = 0.5934	0.3089
x2 = 0.6935	0.3139
x2 = 0.7963	0.3199
x2 = 0.8984	0.3268

O=S=O + ClC(Cl)(Cl)Cl
298.15 K, 101 kPa
Settings	viscosity [mPa·s]
x1 = 0.00784	0.8572
x1 = 0.0163	0.841
x1 = 0.0185	0.8352
x1 = 0.0267	0.82

Cc1cc(C)cc(C)c1 + CS(C)=O
viscosity [mPa·s], 101.3 kPa
Settings	x2 = 0.0996	x2 = 0.1961	x2 = 0.3046	x2 = 0.4024	x2 = 0.5049	x2 = 0.6057	x2 = 0.7047	x2 = 0.8055	x2 = 0.9018
298.15 K	0.699	0.772	0.865	1.018	1.168	1.28	1.367	1.508	1.711
303.15 K	0.654	0.718	0.799	0.901	1.029	1.136	1.241	1.372	1.553
308.15 K	0.616	0.674	0.747	0.831	0.935	1.036	1.135	1.266	1.42

CC(C)CN + COCCO
298.15 K, 101 kPa
Settings	viscosity [mPa·s]
x2 = 0.05	0.614
x2 = 0.1001	0.666
x2 = 0.1511	0.719
x2 = 0.2	0.788
x2 = 0.2513	0.869
x2 = 0.2996	0.95
x2 = 0.3519	1.043
x2 = 0.4002	1.132
x2 = 0.4491	1.221
x2 = 0.4989	1.308
x2 = 0.5501	1.387
x2 = 0.6	1.457
x2 = 0.6521	1.52
x2 = 0.6999	1.567
x2 = 0.7502	1.608
x2 = 0.8	1.632
x2 = 0.8512	1.643
x2 = 0.9	1.641
x2 = 0.9492	1.609

CCCCCC(CC)NC(=O)Nc1ccc(C)c(NC(=O)NC(CC)CCCCC)c1 (configuration not stated) + CCCCC
Settings	viscosity [mPa·s]
293.15 K, 100 kPa, x1 = 0.0002	86

Cc1cc(C)cc(C)c1 + CCC(C)=O
307.35 K, 101.33 kPa
Settings	viscosity [mPa·s]
x2 = 0.1256	0.549
x2 = 0.3266	0.5
x2 = 0.4175	0.479
x2 = 0.5581	0.443
x2 = 0.6213	0.428
x2 = 0.7133	0.409
x2 = 0.8019	0.389
x2 = 0.9035	0.368

O=C1CCCN1 + OCCCO
308.15 K, 101 kPa
Settings	viscosity [mPa·s]
x1 = 0.1929	22.6
x1 = 0.3918	17.83
x1 = 0.4915	15.95
x1 = 0.5918	14.51
x1 = 0.6929	12.9
x1 = 0.897	10.06

O=S=O + CCCCCCC
298.15 K, 101 kPa
Settings	viscosity [mPa·s]
x1 = 0.0265	0.3767
x1 = 0.0489	0.3719

O=C1CCCN1 + CC(C)CO
Settings	viscosity [mPa·s]
303.15 K, 101 kPa, x1 = 0.9753	10.15

Cc1cc(C)cc(C)c1 + C1CCCCC1
viscosity [mPa·s], 101 kPa
Settings	303 K	303.15 K	308.15 K	313 K	313.15 K	318.15 K	323 K	323.15 K
x1 = 0.1001	–	0.7294	0.6779	–	0.6321	0.591	–	0.5529
x1 = 0.1028	0.7231	–	–	0.6296	–	–	0.5473	–
x1 = 0.2001	–	0.6775	0.6326	–	0.5925	0.5562	–	0.5229
x1 = 0.2002	0.6616	–	–	0.5833	–	–	0.518	–
x1 = 0.299	0.6393	–	–	0.5651	–	–	0.5048	–
x1 = 0.3	–	0.6444	0.6039	–	0.5675	0.5341	–	0.5036
x1 = 0.396	0.6187	–	–	0.5553	–	–	0.4899	–
x1 = 0.4	–	0.6263	0.5881	–	0.5539	0.5231	–	0.4941
x1 = 0.4961	0.6085	–	–	0.5439	–	–	0.4892	–
x1 = 0.5	–	0.6163	0.5791	–	0.5465	0.5165	–	0.4886
x1 = 0.5971	0.6054	–	–	0.54	–	–	0.4863	–
x1 = 0.6	–	0.6104	0.5748	–	0.5431	0.5143	–	0.4873
x1 = 0.699	0.6015	–	–	0.5379	–	–	0.4853	–
x1 = 0.7	–	0.6099	0.5746	–	0.5428	0.514	–	0.4871
x1 = 0.7992	0.6055	–	–	0.543	–	–	0.4858	–
x1 = 0.8001	–	0.6119	0.5767	–	0.5451	0.5165	–	0.4904
x1 = 0.8983	0.6081	–	–	0.543	–	–	0.4893	–
x1 = 0.9	–	0.6162	0.5819	–	0.551	0.5223	–	0.494

NC(=O)c1ccccc1 + c1ccncc1
298.15 K, 101 kPa
Settings	viscosity [mPa·s]
x1 = 0.0343	1.055
x1 = 0.08504	1.331

OCCOCCOCCOCCOCCOCCO + O
viscosity [mPa·s], 100 kPa
Settings	293.15 K	298.15 K	303.15 K	308.15 K	313.15 K	318.15 K	323.15 K
x2 = 0.086	84.1	63.85	49.38	39.16	31.47	25.71	21.3
x2 = 0.154	83.43	63.21	48.95	38.71	31.12	25.38	21.01
x2 = 0.191	79.58	61.16	47.41	37.44	30.09	24.56	20.43
x2 = 0.222	81.84	62.01	47.77	37.78	30.44	24.83	20.66

[Cl-].[Cl-].[Cl-].[Cl-].[Sn+4] + COc1ccccc1
viscosity [mPa·s], 101 kPa
Settings	x2 = 0.5074	x2 = 0.6728	x2 = 0.782	x2 = 0.8238	x2 = 0.864	x2 = 0.9558
293.15 K	0.932	0.958	1.01	1.04	1.07	1.1
313.15 K	0.724	0.732	0.746	0.765	0.779	0.811

O=P(O)(O)OP(=O)(O)O + O
viscosity, 101 kPa
Settings	313 K	323 K
x1 = 0.009	0.95 mPa·s and 0.8 mPa·s	–
x1 = 0.015	1.49 mPa·s and 1.2 mPa·s	–
x1 = 0.02	1.75 mPa·s	1.39 mPa·s
x1 = 0.026	2.86 mPa·s	2.38 mPa·s
x1 = 0.03	4.79 mPa·s and 3.85 mPa·s	–
x1 = 0.0306	3.76 mPa·s	2.03 mPa·s
x1 = 0.04	5.82 mPa·s and 4.7 mPa·s	–
x1 = 0.045	7.65 mPa·s	6.05 mPa·s
x1 = 0.051	9.8 mPa·s and 6.88 mPa·s	–
x1 = 0.055	10.9 mPa·s and 8.82 mPa·s	–
x1 = 0.062	15.6 mPa·s	12.16 mPa·s
